Source: the NIST ThermoML archive (doi:10.1016/j.jct.2004.12.016)
Several values for one entry are separate records, joined by “and”; a condition that tells them apart may be missing. Identical values can stand only once. ± gives the expanded uncertainty stated by the source.

Settings: for vapor or sublimation pressure: Closed cell (Static) method; for mass density: Fluid (supercritical or subcritical phases), isochoric method

N [ammonia]
Settings | Critical density [kg/m3] | Critical temperature [K] | mass density | vapor or sublimation pressure
310 K, Liquid | – | – | – | 1423.6 ± 2.9 kPa [middle of 6 runs]
350 K, Liquid | – | – | – | 3867 ± 6.3 kPa [middle of 5 runs]
400 K, Liquid | – | – | – | 10303 ± 16 kPa [middle of 4 runs]
404.5 K, Liquid | – | – | – | 11148 ± 0.033 kPa and 11151 ± 0.033 kPa and 11150 ± 0.033 kPa
405.5 K, Liquid | – | – | – | 11343 ± 0.033 kPa
405.53 K, Liquid | – | – | – | 11351 ± 0.033 kPa
405.54 K, Liquid | – | – | – | 11352 ± 0.033 kPa and 11354 ± 0.033 kPa and 11353 ± 0.033 kPa
405.55 K, 11351 kPa | – | – | 235.01 ± 2 kg/m3 | –
405.55 K, 11355 kPa | – | – | 249.99 ± 2 kg/m3 | –
405.55 K, 11359 kPa | – | – | 255.19 ± 2 kg/m3 | –
405.55 K, Liquid | – | – | – | 11356 ± 0.033 kPa [middle of 5 runs]
405.56 K, 11355 kPa | – | – | 242.91 ± 2 kg/m3 and 244.06 ± 2 kg/m3 | –
405.56 K, 11356 kPa | – | – | 241.93 ± 2 kg/m3 and 242.97 ± 2 kg/m3 | –
405.56 K, 11357 kPa | – | – | 244.01 ± 2 kg/m3 | –
405.56 K, 11358 kPa | – | – | 244.95 ± 2 kg/m3 and 243.49 ± 2 kg/m3 | –
405.56 K, 11359 kPa | – | – | 244 ± 2 kg/m3 | –
405.57 K, 11358 kPa | – | – | 242.95 ± 2 kg/m3 | –
405.57 K, 11360 kPa | – | – | 241.94 ± 2 kg/m3 and 244.1 ± 2 kg/m3 and 245.04 ± 2 kg/m3 | –
405.57 K, 11361 kPa | – | – | 243.96 ± 2 kg/m3 | –
405.57 K, 11370 kPa | – | – | 242.83 ± 2 kg/m3 | –
405.58 K, 11360 kPa | – | – | 243.01 ± 2 kg/m3 | –
405.58 K, 11362 kPa | – | – | 242.02 ± 2 kg/m3 and 244.08 ± 2 kg/m3 and 244.99 ± 2 kg/m3 | –
405.6 K, 11355 kPa | – | – | 224.92 ± 2 kg/m3 | –
405.6 K, 11356 kPa | – | – | 229.9 ± 2 kg/m3 | –
405.6 K, 11362 kPa | – | – | 235.14 ± 2 kg/m3 | –
405.6 K, 11363 kPa | – | – | 239.9 ± 2 kg/m3 | –
405.6 K, 11367 kPa | – | – | 245.12 ± 2 kg/m3 | –
Liquid, Visual observation in an unstirred cell | – | 405.56 ± 0.06 | – | –
Liquid, metal-bellows volumometer | 244 ± 2 | – | – | –
